Here are results for 26 molecules from US8178552B2, “7-Azaindole derivatives and their use in the inhibition of c-Jun N-terminal kinase” (Eisai R&D Management Co., Ltd., priority 2008, dated 2012).

Molecules are shown by their SMILES. Where only a bound is given, the exact number is not on record here.

Sequence of JNK3 (P53779 whole entry, species assumed): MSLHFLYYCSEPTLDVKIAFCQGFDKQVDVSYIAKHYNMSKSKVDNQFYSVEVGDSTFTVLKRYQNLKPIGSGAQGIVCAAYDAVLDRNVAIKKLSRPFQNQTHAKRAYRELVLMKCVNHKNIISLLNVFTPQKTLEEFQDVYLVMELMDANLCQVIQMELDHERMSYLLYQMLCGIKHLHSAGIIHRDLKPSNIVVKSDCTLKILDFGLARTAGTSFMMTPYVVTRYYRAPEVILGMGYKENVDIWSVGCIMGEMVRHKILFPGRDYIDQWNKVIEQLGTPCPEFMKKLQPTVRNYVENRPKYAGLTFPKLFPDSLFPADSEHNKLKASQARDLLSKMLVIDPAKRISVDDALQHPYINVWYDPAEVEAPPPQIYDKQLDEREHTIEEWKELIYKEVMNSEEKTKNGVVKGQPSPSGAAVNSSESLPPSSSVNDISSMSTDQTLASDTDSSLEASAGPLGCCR

The target of this assay is JNK3 (Homo sapiens, UniProt P53779). The assay can be described thus: JNK3 SPA assay. It counts as biochemical. Particulars: 3.33 μM ATP, GST-c-Jun substrate; read-out: IC50 against JNK3. The method, then:
JNK1, JNK2, JNK3—SPA Assay
JNK1, JNK2, JNK3—SPA Assay • 1. Compound is dissolved in DMSO to a convenient concentration and this is diluted in 10% DMSO to a five times concentrate of the desired starting concentration (frequently 1:100). • 2. 10 μl of 500 mM EDTA is added to alternative wells of the Opti-plate row, which will receive kinase reaction plus DMSO. This creates the negative control. • 3. For the JNK2 and JNK3 assay, compounds are prepared in six 2-fold dilutions with water and each concentration is tested in duplicate. For the JNK1 assay compounds are prepared in four 5-fold dilutions with water which are tested in triplicate. Controls are treated identically. • 4. 20 μl per well of each compound concentration is transferred to an Opti-plate, in duplicate. • 5. 30 μl (JNK2/3 SPA) or 50 μl (JNK1 SPA) of substrate solution (25 mM HEPES pH 7.5, 10 mM magnesium acetate with 3.33 μM ATP (JNK2/3) or 2 μM ATP (JNK1), approximately 7.5 kBq [γ-^33P] ATP, GST-c-Jun, in water) is added to each well. • 6. 50 μl (JNK2/3 SPA) or 30 μl (JNK1 SPA) of kinase solution (JNK in 25 mM HEPES pH 7.5, 10 mM Mg Acetate) is added to each well.
• 7. The plate is incubated for 30 minutes at room temperature. • 8. 100 μl of bead/stop solution is added to each well (5 mg/ml glutathione-PVT-SPA beads, 40 mM ATP in PBS). • 9. Plates are sealed and incubated for 30 minutes at room temperature, centrifuged for 10 minutes at 2500 g and counted. • 10. The IC50 values are calculated as the concentration of the compound being tested at which the phosphorylation of c-Jun is decreased to 50% of the control value.
`Cn1cc(-c2c[nH]c3ncc(C4=CC(C)(C)CC(C)(C)C4)cc23)cn1` [Compound I-28, 3-(1-methyl-1H-pyrazol-4-yl)-5-(3,3,5,5-tetramethylcyclohex-1-enyl)-1H-pyrrolo[2,3-b]pyridine]: the IC50 (in general, the concentration at which inhibition is half-maximal) was determined as 5500 nM.
To `CCN(CC)C1CCC(c2cnc3[nH]cc(-c4cnn(C)c4)c3c2)CC1` (centres unmarked) [Compound I-52, N,N-diethyl-4-(3-(1-methyl-1H-pyrazol-4-yl)-1H-pyrrolo[2,3-b]pyridin-5-yl)cyclohexanamine] belongs 251 nM.
`Cn1cc(-c2c[nH]c3ncc([C@H]4CC[C@H](NC5CCOCC5)CC4)cc23)cn1` [Compound I-127, N-((1 r,4r)-4-(3-(1-methyl-1H-pyrazol-4-yl)-1H-pyrrolo[2,3-b]pyridin-5-yl)cyclohexyl)tetrahydro-2H-pyran-4-amine]: the concentration for half-maximal inhibition (IC50) is 398 nM.
Turning to `Cn1cc(-c2c[nH]c3ncc(C4CCC(c5ccccc5)CC4)cc23)cn1` (mixture of isomers) [Compound I-35, 3-(1-methyl-1H-pyrazol-4-yl)-5-(4-phenylcyclohexyl)-1H-pyrrolo[2,3-b]pyridine], the IC50 was 91 nM.
For the molecule `FC(F)n1cc(-c2c[nH]c3ncc(C4=CCC(N5CCOCC5)CC4)cc23)cn1` (centres unmarked) [Compound I-5, 3-(1-Difluoromethyl-1H-pyrazol-4-yl)-5-(4-morpholin-4-yl-cyclohex-1-enyl)-1H-pyrrolo[2,3-b]pyridine], the IC50 was found to be 339 nM.
To `Cc1c(-c2c[nH]c3ncc([C@H]4CC[C@@H](N5CCOCC5)CC4)cc23)cnn1C` [Compound I-96, 4-((1s,4s)-4-(3-(1,5-dimethyl-1H-pyrazol-4-yl)-1H-pyrrolo[2,3-b]pyridin-5-yl)cyclohexyl)morpholine] belongs 1700 nM; to `Cn1cc(-c2c[nH]c3ncc([C@H]4CC[C@@H](N5CC[C@H](F)C5)CC4)cc23)cn1` [Compound I-49, 5-((1R,4s)-4-((S)-3-fluoropyrrolidin-1-yl)cyclohexyl)-3-(1-methyl-1H-pyrazol-4-yl)-1H-pyrrolo[2,3-b]pyridine], 316 nM.
To `Cn1cc(-c2c[nH]c3ncc(C4=CCCCCC4)cc23)cn1` [Compound I-13, (E)-5-cycloheptenyl-3-(1-methyl-1H-pyrazol-4-yl)-1H-pyrrolo[2,3-b]pyridine] belongs 126 nM.
Then `CCN(C)[C@H]1CC[C@@H](c2cnc3[nH]cc(-c4cnn(C)c4)c3c2)CC1` [Compound I-110, (1s,4s)-N-ethyl-N-methyl-4-(3-(1-methyl-1H-pyrazol-4-yl)-1H-pyrrolo[2,3-b]pyridin-5-yl)cyclohexanamine], with 355 nM; and `CCCN(CCOC)[C@H]1CC[C@@H](c2cnc3[nH]cc(-c4cnn(C)c4)c3c2)CC1` [Compound I-122, (1s,4s)-N-(2-methoxyethyl)-4-(3-(1-methyl-1H-pyrazol-4-yl)-1H-pyrrolo[2,3-b]pyridin-5-yl)-N-propylcyclohexanamine], with 295 nM; and `Cc1c(-c2c[nH]c3ncc([C@H]4CC[C@H](N5CCOCC5)CC4)cc23)cnn1C` [Compound I-95, 4-((1r,4r)-4-(3-(1,5-dimethyl-1H-pyrazol-4-yl)-1H-pyrrolo[2,3-b]pyridin-5-yl)cyclohexyl)morpholine], with 1510 nM.
For the molecule `Cn1cc(-c2c[nH]c3ncc(C4=C[C@H]5O[C@@H]4C[C@@H]5C#N)cc23)cn1` [I-155 exo, (1R,2R,4R)-5-(3-(1-methyl-1H-pyrazol-4-yl)-1H-pyrrolo[2,3-b]pyridin-5-yl)-7-oxabicyclo[2.2.1]hept-5-ene-2-carbonitrile], the 50% inhibitory concentration (IC50) came to 219 nM.
To `CCC1CC=C(c2cnc3[nH]cc(-c4cnn(C)c4)c3c2)CC1` (centres unmarked) [Compound I-8, 5-(4-ethylcyclohex-1-enyl)-3-(1-methyl-1H-pyrazol-4-yl)-1H-pyrrolo[2,3-b]pyridine] belongs 16 nM; to `Cn1cc(-c2c[nH]c3ncc([C@H]4CC[C@H](CO)CC4)cc23)cn1` [Compound I-74, ((1r,4r)-4-(3-(1-methyl-1H-pyrazol-4-yl)-1H-pyrrolo[2,3-b]pyridin-5-yl)cyclohexyl)methanol], 63 nM; to `C1=C(c2cnc3[nH]cc(-c4cnn(CCN5CCOCC5)c4)c3c2)CCC1` [Compound I-62, 5-Cyclopent-1-enyl-3-[1-(2-morpholin-4-yl-ethyl)-1H-pyrazol-4-yl]-1H-pyrrolo[2,3-b]pyridine], 105 nM.
For the molecule `C[C@H]1COCCN1[C@H]1CC[C@H](c2cnc3[nH]cc(-c4cnn(C)c4)c3c2)CC1` [Compound I-103, (S)-3-methyl-4-((1r,4S)-4-(3-(1-methyl-1H-pyrazol-4-yl)-1H-pyrrolo[2,3-b]pyridin-5-yl)cyclohexyl)morpholine], the half-inhibitory concentration (IC50) worked out at 263 nM.
Then `Cn1cc(-c2c[nH]c3ncc(C4=CCC5(CC4)OCCO5)cc23)cn1` [Compound I-14, 5-(1,4-Dioxa-spiro[4.5]dec-7-en-8-yl)-3-(1-methyl-1H-pyrazol-4-yl)-1H-pyrrolo[2,3-b]pyridine], with 224 nM; and `Cn1cc(-c2c[nH]c3ncc(C4=CC5CC(=O)CC(C4)C5)cc23)cn1` (centres unmarked) [Compound I-145, 7-(3-(1-methyl-1H-pyrazol-4-yl)-1H-pyrrolo[2,3-b]pyridin-5-yl)bicyclo[3.3.1]non-6-en-3-one], with 167 nM.
Then `Cn1cc(-c2c[nH]c3ncc(C4CCCC5C4C5(C)C)cc23)cn1` (centres unmarked) [Compound I-142, 5-(7,7-dimethylbicyclo[4.1.0]heptan-2-yl)-3-(1-methyl-1H-pyrazol-4-yl)-1H-pyrrolo[2,3-b]pyridine], with 155 nM.
To `Cn1cc(-c2c[nH]c3ncc(C4CC(C)(C)CC(C)(C)C4)cc23)cn1` [Compound I-34, 3-(1-methyl-1H-pyrazol-4-yl)-5-(3,3,5,5-tetramethylcyclohexyl)-1H-pyrrolo[2,3-b]pyridine] belongs 2140 nM; to `Cn1cc(-c2c[nH]c3ncc([C@H]4CC[C@@H](C(=O)O)CC4)cc23)cn1` [Compound I-77, (1s,4s)-4-(3-(1-methyl-1H-pyrazol-4-yl)-1H-pyrrolo[2,3-b]pyridin-5-yl)cyclohexanecarboxylic acid], over 500 nM.
On to `CCCN(CC)[C@H]1CC[C@H](c2cnc3[nH]cc(-c4cnn(C)c4)c3c2)CC1` [Compound I-113, (1r,4r)-N-ethyl-4-(3-(1-methyl-1H-pyrazol-4-yl)-1H-pyrrolo[2,3-b]pyridin-5-yl)-N-propylcyclohexanamine], for which the half-inhibitory concentration (IC50) amounted to 316 nM.
As for `CC1CC=C(c2cnc3[nH]cc(-c4cnn(C)c4)c3c2)CC1` (centres unmarked) [Compound I-1, 3-(1-methyl-1H-pyrazol-4-yl)-5-(4-methylcyclohex-1-enyl)-1H-pyrrolo[2,3-b]pyridine], the IC50 is 18 nM.
Consider `C[C@H]1COCCN1[C@H]1CC[C@@H](c2cnc3[nH]cc(-c4cnn(C)c4)c3c2)CC1` [Compound I-104, (S)-3-methyl-4-((1s,4R)-4-(3-(1-methyl-1H-pyrazol-4-yl)-1H-pyrrolo[2,3-b]pyridin-5-yl)cyclohexyl)morpholine], for which the IC50 was 138 nM.
Then `Cn1cc(-c2c[nH]c3ncc(C4=CC5CC(O)CC(C4)C5)cc23)cn1` (centres unmarked) [Compound I-146, 7-(3-(1-methyl-1H-pyrazol-4-yl)-1H-pyrrolo[2,3-b]pyridin-5-yl)bicyclo[3.3.1]non-6-en-3-ol], with 832 nM; and `COC1(c2cnc3[nH]cc(-c4cnn(C)c4)c3c2)CCCC1` [Compound I-63, 5-(1-methoxycyclopentyl)-3-(1-methyl-1H-pyrazol-4-yl)-1H-pyrrolo[2,3-b]pyridine], with 468 nM.
